Assay results taken from the NIST ThermoML archive (doi:10.1016/j.jct.2013.11.004).
Numbers after ± are expanded uncertainties.

Conditions: DTA

Glass transition temperature [°C] | SMILES
-83.17 ± 4 | CCC(=O)[O-].CCn1cc[n+](C)c1 [1-ethyl-3-methylimidazolium propionate]
-82.92 ± 4 | CCC(=O)[O-].CCCn1cc[n+](C)c1 [1-propyl-3-methylimidazolium propionate]
